Drawing on patent US11459335B2, “N/O-linked Degrons and Degronimers for protein degradation” (C4 Therapeutics, Inc., priority 2017, dated 2022), this text covers Kd for 57 compounds.

One may read the Kd as the free concentration of one partner at which half of the binding sites on the other are occupied at equilibrium, for simple one-to-one binding. The low end stands for tighter binding, the high end for weaker binding.

Molecules are shown by their SMILES.

This test addresses CRBN-DDB1 (Homo sapiens (Human), UniProt Q96SW2). Description: Fluorescence polarization (FP) assay for compound ligand binding to CRBN-DDB1. Particulars: FP displacement of (−)-Thalidomide-Alexa Fluor or Pomalidomide-fluorescein probe (5 nM), 400 nM CRBN-DDB1, 60 min room temperature. Here is the method: Measuring compound ligand binding to CRBN-DDB1 was carried out using an established sensitive and quantitative in vitro fluorescence polarization (FP) based binding assay. […] Compounds were dispensed from serially diluted DMSO stock into black 384-well compatible fluorescence polarization plates using an Echo acoustic dispenser. Compound binding to CRBN-DDB1 was measured by displacement of either a (−)-Thalidomide-Alexa Fluor® or Pornalidomide-fluorescein conjugated probe dye. […] Matching control wells excluding CRBN-DDB1 were used to correct for background fluorescence. Plates were read on an Envision plate reader with appropriate FP filter sets. The corrected S (perpendicular) and P (parallel) values were used to calculate fluorescence polarization (FP) with the following equation: FP=1000*(S−G*P)/(S+G*P).
Background: Polarisation of emitted light reports the rotation of a fluorescent probe.

The mark [1] stands for this setting: Additional Compounds of the Present Invention.
Where [2] appears, read: Degrons, Compounds of the Present Invention.

Sequence of CRBN-DDB1 (Q96SW2 whole entry): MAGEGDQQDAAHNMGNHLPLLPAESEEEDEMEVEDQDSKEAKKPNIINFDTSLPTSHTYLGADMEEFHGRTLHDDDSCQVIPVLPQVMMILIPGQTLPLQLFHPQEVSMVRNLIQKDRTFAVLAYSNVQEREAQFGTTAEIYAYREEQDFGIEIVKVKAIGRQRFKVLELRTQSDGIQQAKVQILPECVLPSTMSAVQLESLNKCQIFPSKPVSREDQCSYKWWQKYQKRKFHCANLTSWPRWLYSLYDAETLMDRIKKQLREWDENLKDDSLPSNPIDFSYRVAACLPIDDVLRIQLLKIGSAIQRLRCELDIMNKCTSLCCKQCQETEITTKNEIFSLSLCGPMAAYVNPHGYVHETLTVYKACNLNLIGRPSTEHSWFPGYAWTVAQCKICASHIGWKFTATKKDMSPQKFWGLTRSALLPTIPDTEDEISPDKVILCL
Sequence of CRBN-DDB1 (Q16531 whole entry partner): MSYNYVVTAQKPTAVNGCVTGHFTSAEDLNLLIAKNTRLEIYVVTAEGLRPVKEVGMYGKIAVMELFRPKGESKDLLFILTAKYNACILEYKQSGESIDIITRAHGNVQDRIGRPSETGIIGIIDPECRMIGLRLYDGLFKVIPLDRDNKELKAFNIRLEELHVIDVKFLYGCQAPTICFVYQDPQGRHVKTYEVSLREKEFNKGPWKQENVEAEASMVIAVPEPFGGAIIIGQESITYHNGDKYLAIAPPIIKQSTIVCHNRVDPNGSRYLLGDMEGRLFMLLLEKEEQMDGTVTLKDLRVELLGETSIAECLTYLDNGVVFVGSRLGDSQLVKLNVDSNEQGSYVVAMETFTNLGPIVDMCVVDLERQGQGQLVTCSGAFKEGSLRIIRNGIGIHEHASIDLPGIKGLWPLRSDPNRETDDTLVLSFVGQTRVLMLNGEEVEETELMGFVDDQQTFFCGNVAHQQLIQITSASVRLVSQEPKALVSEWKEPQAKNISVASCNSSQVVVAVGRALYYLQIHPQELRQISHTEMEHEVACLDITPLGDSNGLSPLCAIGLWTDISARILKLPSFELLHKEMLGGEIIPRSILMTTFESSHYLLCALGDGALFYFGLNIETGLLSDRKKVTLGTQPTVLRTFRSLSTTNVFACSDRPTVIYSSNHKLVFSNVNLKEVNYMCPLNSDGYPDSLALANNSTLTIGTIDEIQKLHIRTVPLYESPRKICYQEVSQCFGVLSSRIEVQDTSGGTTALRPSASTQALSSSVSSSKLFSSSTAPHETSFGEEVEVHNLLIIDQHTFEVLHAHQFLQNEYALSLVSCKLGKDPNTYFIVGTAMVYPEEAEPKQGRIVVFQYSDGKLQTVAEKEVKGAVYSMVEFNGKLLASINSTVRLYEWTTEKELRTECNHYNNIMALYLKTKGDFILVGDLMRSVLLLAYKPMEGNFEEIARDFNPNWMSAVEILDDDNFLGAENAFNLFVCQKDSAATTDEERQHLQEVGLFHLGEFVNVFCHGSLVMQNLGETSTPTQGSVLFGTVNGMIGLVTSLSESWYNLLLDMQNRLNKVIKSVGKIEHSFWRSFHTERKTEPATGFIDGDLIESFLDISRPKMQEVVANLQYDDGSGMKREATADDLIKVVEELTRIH

Under setting [1], `O=C1CC[C@@H](O[C@H]2CCN(c3ccccc3)C2=O)C(=O)N1` (single isomer, unassigned) [Compound 161, 3-(2-Oxo-1-phenyl-pyrrolidin-3-yloxy)-piperidine-2,6-dione] had a Kd of 50 to 100 µM.

As to `O=C1CC[C@H](O[C@H]2CCN(c3ccccc3)C2=O)C(=O)N1` (single isomer, unassigned) [Compound 162, 3-(2-Oxo-1-phenyl-pyrrolidin-3-yloxy)-piperidine-2,6-dione], the Kd under setting [1] lay within 10 to 50 µM.

On to `CN(c1ccc(F)cc1F)C1CCC(=O)NC1=O` (stereo not drawn) [Compound 2], for which the equilibrium dissociation constant (Kd) under setting [2] was 50 to 100 µM.

With `O=C1CCC(Nc2ccc(F)cc2)C(=O)N1` (stereo not drawn) [Compound 8], under setting [2], the Kd fell in the range of 10 to 50 µM.

`O=C1CCC(Nc2ccccc2N2CCOCC2)C(=O)N1` (stereo not drawn) [Compound 14] came in with a Kd under setting [2] of 10 to 50 µM.

In the case of `CN(c1ccc(F)cc1)C1CCC(=O)NC1=O` (stereo not drawn) [Compound 17], the Kd under setting [2] fell in the range of 10 to 50 µM.

`O=C1CCC(Nc2ccccc2OC(F)(F)F)C(=O)N1` (stereo not drawn) [Compound 21] had a Kd under setting [2] of 10 to 50 µM.

The compound `COc1ccc(C(F)(F)F)cc1NC1CCC(=O)NC1=O` (stereo not drawn) [Compound 24] displayed a Kd under setting [2] of 10 to 50 µM.

Compound `COc1ccc(C(C)(C)C)cc1NC1CCC(=O)NC1=O` (stereo not drawn) [Compound 25] registered a Kd under setting [2] of 50 to 100 µM.

As for `O=C1CCC(Nc2c(F)cccc2F)C(=O)N1` (stereo not drawn) [Compound 63], the Kd under setting [2] lay in the range of 10 to 50 µM.

Consider `COc1ccc(N(C)C2CCC(=O)NC2=O)c(OC)c1` (stereo not drawn) [Compound 69], for which, under setting [2], the Kd was 10 to 50 µM.

Take `O=C1CCC(Nc2ccccc2CN2CCCC2)C(=O)N1` (stereo not drawn) [Compound 71]: under setting [2], the equilibrium dissociation constant (Kd) was 10 to 50 µM.

`O=C1CCC(Nc2cccc(CN3CCCCC3)c2)C(=O)N1` (stereo not drawn) [Compound 72] displayed a Kd under setting [2] of 10 to 50 µM.

Take `CC(C)(C)OC(=O)N1CCC(n2cc(NC3CCC(=O)NC3=O)cn2)CC1` (stereo not drawn) [Compound 73]: the Kd under setting [2] lay within 50 to 100 µM.

`Cn1cnc2c(NC3CCC(=O)NC3=O)cccc21` (stereo not drawn) [Compound 74] registered a Kd under setting [2] of 10 to 50 µM.

In the case of `O=C1CCC(Nc2cnn(-c3ccccc3)c2)C(=O)N1` (stereo not drawn) [Compound 75], the Kd under setting [2] fell in the range of 10 to 50 µM.

As for `CN1CCc2ccc(NC3CCC(=O)NC3=O)cc2C1=O` (stereo not drawn) [Compound 76], the dissociation constant (Kd) under setting [2] was in the range of 10 to 50 µM.

Consider `Cn1cnc2cc(NC3CCC(=O)NC3=O)ccc21` (stereo not drawn) [Compound 78], for which the dissociation constant Kd under setting [2] was 10 to 50 µM.

With `O=C1CCC(Nc2cccnc2)C(=O)N1` (stereo not drawn) [Compound 80], the Kd under setting [2] was 10 to 50 µM.

Turning to `O=C1CCC(Nc2ccc3c(c2)CCNC3)C(=O)N1` (stereo not drawn) [Compound 83], the Kd under setting [2] was in the range of 10 to 50 µM.

`O=C1CCC(Nc2ccc(C3CCNCC3)cn2)C(=O)N1` (stereo not drawn) [Compound 84] returned a Kd under setting [2] of 10 to 50 µM.

`CN(c1cccc(N2CCNCC2)c1)C1CCC(=O)NC1=O` (stereo not drawn) [Compound 87] gave a Kd under setting [2] of 10 to 50 µM.

`O=C1CCC(Nc2ccc(N3CCNCC3)cc2)C(=O)N1` (stereo not drawn) [Compound 89] gave a Kd under setting [2] of 10 to 50 µM.

Under setting [2], `NCc1ccc(NC2CCC(=O)NC2=O)cc1` (stereo not drawn) [Compound 90] came in with a Kd of 10 to 50 µM.

`NCc1cccc(NC2CCC(=O)NC2=O)c1` (stereo not drawn) [Compound 91] registered a Kd under setting [2] of 10 to 50 µM.

`CN1Cc2ccc(NC3CCC(=O)NC3=O)cc2C1=O` (stereo not drawn) [Compound 93] returned a Kd under setting [2] of 50 to 100 µM.

For the compound `O=C1CCC(Nc2cnn(C3CCNCC3)c2)C(=O)N1` (stereo not drawn) [Compound 94], the Kd under setting [2] was in the range of 10 to 50 µM.

Take `CN(C1CN(C(=O)OC(C)(C)C)C1)C1CCC(=O)NC1=O` (stereo not drawn) [Compound 98]: the Kd under setting [2] was 50 to 100 µM.

As for `CN(C1CN(c2ccccc2)C1)C1CCC(=O)NC1=O` (stereo not drawn) [Compound 103], the Kd under setting [2] was 10 to 50 µM.

Regarding `CN1CC(N(C)C2CCC(=O)NC2=O)CC1=O` (stereo not drawn) [Compound 104], the Kd under setting [2] was 50 to 100 µM.

For the compound `CN(C1CC(=O)N(c2ccccc2)C1)C1CCC(=O)NC1=O` (stereo not drawn) [Compound 105], the Kd under setting [2] was 50 to 100 µM.

For the compound `CN(CC(=O)Nc1ccccc1)C1CCC(=O)NC1=O` (stereo not drawn) [Compound 108], the Kd under setting [2] was in the range of 10 to 50 µM.

For `CN(CC(N)=O)C1CCC(=O)NC1=O` (stereo not drawn) [Compound 110], under setting [2], the Kd is 10 to 50 µM.

`COc1cc(OC)nc(NC2CCC(=O)NC2=O)n1` (stereo not drawn) [Compound 113]: the Kd under setting [2] lay in the range of 50 to 100 µM.

`O=C1CCC(Nc2ccn(-c3ccccc3)n2)C(=O)N1` (stereo not drawn) [Compound 114]: the Kd under setting [2] lay within 10 to 50 µM.

Under setting [2], `O=C1CCC(Nc2cccnc2)C(=O)N1` (stereo not drawn) [Compound 115] displayed a Kd of 10 to 50 µM.

With `Cn1nc(NC2CCC(=O)NC2=O)c2ccccc21` (stereo not drawn) [Compound 116], the Kd under setting [2] lay in the range of 10 to 50 µM.

In turn, `CC(C)(C)OC(=O)N1Cc2cnc(NC3CCC(=O)NC3=O)nc2C1` (stereo not drawn) [Compound 117] came in with a Kd under setting [2] of 50 to 100 µM.

With `O=C1CCC(Nc2cc(C(=O)N3CCCC3)ccn2)C(=O)N1` (stereo not drawn) [Compound 119], under setting [2], the Kd was in the range of 50 to 100 µM.

On to `O=C1CCC(Nc2ccc3ccccc3n2)C(=O)N1` (stereo not drawn) [Compound 120], for which, under setting [2], the Kd was in the range of 10 to 50 µM.

`CC(C)(C)OC(=O)N1CCN(c2nccc(NC3CCC(=O)NC3=O)n2)CC1` (stereo not drawn) [Compound 121] registered a Kd under setting [2] of 50 to 100 µM.

For `CC(C)(C)OC(=O)N1CCC(c2ccc(NC3CCC(=O)NC3=O)nc2)CC1` (stereo not drawn) [Compound 123], the Kd under setting [2] lay in the range of 10 to 50 µM.

Compound `Cc1cnc(NC2CCC(=O)NC2=O)cn1` (stereo not drawn) [Compound 124] showed a Kd under setting [2] of 10 to 50 µM.

Under setting [2], `O=C1CCC(Nc2ccccc2)C(=O)N1` (stereo not drawn) [Compound 125] returned a Kd of 10 to 50 µM.

For `O=C1CCC(Oc2ccccc2)C(=O)N1` (stereo not drawn) [Compound 129], the Kd under setting [1] was 10 to 50 µM.

For the compound `CN1CCN(c2ccc(OC3CCC(=O)NC3=O)cc2)CC1` (stereo not drawn) [Compound 130], the Kd under setting [1] was in the range of 10 to 50 µM.

As for `CC(C)(C)OC(=O)N1CCN(c2ccc(COC3CCC(=O)NC3=O)cc2)CC1` (stereo not drawn) [Compound 131, 4-[4-(2,6-Dioxo-piperidin-3-yloxymethyl)-phenyl]-piperazine-1-carboxylic Acid tert-butyl Ester], the Kd under setting [1] was in the range of 10 to 50 µM.

Under setting [1], `Cn1cnc2cc(OC3CCC(=O)NC3=O)ccc21` (stereo not drawn) [Compound 142] returned a Kd of 10 to 50 µM.

In the case of `Cc1ccn(-c2ccc(OC3CCC(=O)NC3=O)cc2)n1` (stereo not drawn) [Compound 143], the Kd under setting [1] fell in the range of 10 to 50 µM.

The compound `CS(=O)(=O)c1cccc(OC2CCC(=O)NC2=O)c1` (stereo not drawn) [Compound 144] came in with a Kd under setting [1] of 10 to 50 µM.

`CC(=O)c1cc(C)ccc1OC1CCC(=O)NC1=O` (stereo not drawn) [Compound 146] returned a Kd under setting [1] of 50 to 100 µM.

`CC(=O)c1ccccc1OC1CCC(=O)NC1=O` (stereo not drawn) [Compound 153] gave a Kd under setting [1] of 50 to 100 µM.

Take `COC(=O)c1ccccc1OC1CCC(=O)NC1=O` (stereo not drawn) [Compound 155]: under setting [1], the Kd lay within 50 to 100 µM.

`CC(C)(C)OC(=O)N1CCN(c2ccc(NC3CCC(=O)NC3=O)cn2)CC1` (stereo not drawn) [Compound 156, 4-[5-(2,6-Dioxo-piperidin-3-ylamino)-pyridin-2-yl]-piperazine-1-carboxylic Acid tert-butyl Ester] registered a Kd under setting [1] of 10 to 50 µM.

In turn, `Cn1nc(NC2CCC(=O)NC2=O)cc1-c1ccccc1` (stereo not drawn) [Compound 157, 3-(1-Methyl-5-phenyl-1H-pyrazol-3-ylamino)-piperidine-2,6-dione] displayed a Kd under setting [1] of 10 to 50 µM.

As to `O=C1CCC(Nc2ccc(N3CCNCC3)nc2)C(=O)N1` (stereo not drawn) [Compound 158, 3-(6-Piperazin-1-yl-pyridin-3-ylamino)-piperidine-2,6-dione], under setting [1], the equilibrium dissociation constant (Kd) is 10 to 50 µM.

`O=C1CCC(Nc2ccc3cccnc3c2)C(=O)N1` (stereo not drawn) [Compound 163]: under setting [1], the Kd lay within 10 to 50 µM.
